Reference: patent US10632133B2, “Anti-viral azide containing compounds” (Life Technologies Corporation, priority 2010, dated 2020)

How the values were obtained:
[1] = tested on: Nuclear-GFP BacMam 2.0 virus (baculovirus); experiment: BacMam baculovirus infectivity in U2-OS cells (nuclear-GFP expression); type: cell-based; conditions: virus labeled in Sf9 cells with 50 uM analog; 20 or 50 uL virus, overnight at 37C; FIG. 5
Description: Inhibition of insect cell baculovirus infectivity with azido fatty acid analogs: The BacMam system uses a modified insect cell virus (baculovirus) as a vehicle to efficiently deliver and express genes in mammalian cells, A Nuclear-GFP BacMam 2.0 expression system (Invitrogen, C10602) was used as a model to determine if PTM analog labeling of the virus would affect mammalian cell infectivity. Viruses were labeled with various PTM analogs and used to infect mammalian cells. Infectivity was determined by the expression of nuclear-GFP, is viral entry into the cell is required for expression of GFP protein. […]
Characterization of BacMam virus production: To verify, quantitate, and normalize the amount of enriched viruses obtained from insect cell supernatants, samples of each virus were lysed in SDS sample preparation buffer (SPB), sonicated with a probe tip sonicator, and heated at 90C to completely dissolve the viral proteins. Viral protein concentrations of the lysates were then determined. […]
Mammalian cell infection protocol: To determine if the PTM analog-labeled viruses retain the ability to infect mammalian cells, 50,000 U2-OS cells (human osteosarcoma cell line) were plated onto a 6 well-chamber glass bottom plate. […] The following day cells were imaged on AMG EVOS fluorescence microscope at 10× or 20× magnification using both white light and GFP filters (FIG. 5). […]

HIV = HIV infectivity, luciferase reporter assay on TZM/BI reporter cell line with azide-labeled virus; type: cell-based, human immunodeficiency virus (HIVNL4-3); conditions: virus produced in CEMx174 cells spiked with the compound; incubated 12 hours on TZM/BI; single cycle replication system; two luciferase reagents (FIGS. 3 and 4)
Method: CEMx174 cells were transfected with HIVNL4-3 in a T-150 flask and the virus production was monitored by reverse transcriptase activity until peak virus production occurred (usually 7 to 9 days post transfection). Prior to transfection, the CEMx174 cells were spiked with the following azide-modified biomolecules: 15-azidopentadecanoic acid (50-100 μM), 12-azidododecanoic acid (50-100 μM), tetraacetylated N-azidoacetylgalactosamine (20-40 μM), and tetraacetylated N-azidoacetyl-D-mannosamine (20-40 μM).
Labeled virus was also obtained from the transfected cells. More specifically, virus-containing supernatants were collected and virus was purified through 20% sucrose as previously described (Graham, D. R. et al., Proteomics 2008, 8:4919-30). The purified virus was then mixed with the CLICK-IT® detection reagent, tetramethylrhodamine (TAMRA) alkyne and the CLICK-IT® Protein Reaction Buffer Kit (Invitrogen, Carlsbad, Calif.). Virus samples were run on a one-dimensional gel to reveal azide-labeled viral proteins (FIG. 2). […]
To examine the effect of the azide-modified biomolecules on the innate biology of the virus, the azide-labeled virus from the transfected cells was isolated and tested in cell infection studies. […] Viral infectivity was determined by measuring cellular luciferase activities with two different luciferase reagents.

| SMILES | nuclear-GFP expression in U2-OS cells treated with labeled BacMam virus [1] | impact on the infectivity of the virus (cellular luciferase activities) (HIV) |
| --- | --- | --- |
| [N-]=[N+]=NCCCCCCCCCCCCCCC(=O)O [15-azidopentadecanoic acid] | no nuclear-GFP expression |  |
| [N-]=[N+]=NCCCCCCCCCCCC(=O)O [12-azidododecanoic acid] | no nuclear-GFP expression | profound impact on the infectivity of the virus |
